In the supplement of paper PMC10307832:

Tests used:
Assay in all cases: relative viability (nuclei count vs DMSO), 5 days (fraction); higher = more cells survive
[1] = compound: CC1=NN=C(O1)C2=NN=C(C=C2)N3CCC(CC3)OC4=C(C=CC(=C4)F)Cl + C[C@@H](Oc1cc(-c2cnn(C3CCNCC3)c2)cnc1N)c1c(Cl)ccc(F)c1Cl [Crizotinib] (partner 1 µM)
In short: (§1)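 A single step with final 0.05% Triton X-100, 1% formaldehyde and 1 ug/ml Hoechst fixed the cells and stained nuclei 5 days after treatment. Lung cancer cell lines in 1536-well plates had been treated by pin tool the day after seeding with one drug alone or a fixed anchor-drug dose plus five library-drug doses (not always all listed) in √10 steps, and nuclei were counted on 4× images. Relative viability is the ratio of nuclei in treated wells to nuclei in vehicle wells, taken as the median of duplicate plates.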

[2] = compound: CC1=NN=C(O1)C2=NN=C(C=C2)N3CCC(CC3)OC4=C(C=CC(=C4)F)Cl + CC(=O)Nc1cccc(-n2c(=O)n(C3CC3)c(=O)c3c(Nc4ccc(I)cc4F)n(C)c(=O)c(C)c32)c1 [Trametinib] (partner 0.02 µM)
In short: as §1

Tosedostat + Olaparib = compound: CC(C)C[C@@H](C(=O)N[C@H](C(=O)OC1CCCC1)c1ccccc1)[C@H](O)C(=O)NO [Tosedostat] + O=C(c1cc(Cc2n[nH]c(=O)c3ccccc23)ccc1F)N1CCN(C(=O)C2CC2)CC1 [Olaparib] (partner 8 µM)
In short: as §1

[3] = compound: CC1=NN=C(O1)C2=NN=C(C=C2)N3CCC(CC3)OC4=C(C=CC(=C4)F)Cl + COc1cccc2cc(-c3nc([C@H]4CC[C@H](C(=O)O)CC4)n4ncnc(N)c34)[nH]c12 [OSI-027] (partner 0.5 µM)
In short: as §1

## COR-L23
[1]; first compound 0.253 µM
  relative viability: 0.527
[1]; first compound 0.8 µM
  relative viability: 0.586
[1]; first compound 2.53 µM
  relative viability: 0.433
[1]; first compound 8 µM
  relative viability: 0.435
[2]; first compound 0.253 µM
  relative viability: 0.498
[2]; first compound 0.8 µM
  relative viability: 0.396
[2]; first compound 2.53 µM
  relative viability: 0.529
[2]; first compound 8 µM
  relative viability: 0.444
Tosedostat + Olaparib; first compound 0.02 µM
  relative viability: 0.471
Tosedostat + Olaparib; first compound 0.06325 µM
  relative viability: 0.295
Tosedostat + Olaparib; first compound 0.2 µM
  relative viability: 0.291
Tosedostat + Olaparib; first compound 0.6325 µM
  relative viability: 0.269
Tosedostat + Olaparib; first compound 2 µM
  relative viability: 0.268
[3]; first compound 0.253 µM
  relative viability: 0.654
[3]; first compound 0.8 µM
  relative viability: 0.558
[3]; first compound 2.53 µM
  relative viability: 0.586
[3]; first compound 8 µM
  relative viability: 0.389

## HCC-78
[1]; first compound 0.253 µM
  relative viability: 0.294
[1]; first compound 0.8 µM
  relative viability: 0.297
[1]; first compound 2.53 µM
  relative viability: 0.288
[1]; first compound 8 µM
  relative viability: 0.311
[2]; first compound 0.253 µM
  relative viability: 0.338
[2]; first compound 0.8 µM
  relative viability: 0.396
[2]; first compound 2.53 µM
  relative viability: 0.433
[2]; first compound 8 µM
  relative viability: 0.365
Tosedostat + Olaparib; first compound 0.02 µM
  relative viability: 0.683
Tosedostat + Olaparib; first compound 0.06325 µM
  relative viability: 0.796
Tosedostat + Olaparib; first compound 0.2 µM
  relative viability: 0.766
Tosedostat + Olaparib; first compound 0.6325 µM
  relative viability: 0.754
Tosedostat + Olaparib; first compound 2 µM
  relative viability: 0.75
[3]; first compound 0.253 µM
  relative viability: 0.414
[3]; first compound 0.8 µM
  relative viability: 0.369
[3]; first compound 2.53 µM
  relative viability: 0.348
[3]; first compound 8 µM
  relative viability: 0.335

## NCI-H1437
[1]; first compound 0.253 µM
  relative viability: 0.605
[1]; first compound 0.8 µM
  relative viability: 0.506
[1]; first compound 2.53 µM
  relative viability: 0.55
[1]; first compound 8 µM
  relative viability: 0.535
[2]; first compound 0.253 µM
  relative viability: 0.391
[2]; first compound 0.8 µM
  relative viability: 0.367
[2]; first compound 2.53 µM
  relative viability: 0.491
[2]; first compound 8 µM
  relative viability: 0.375
Tosedostat + Olaparib; first compound 0.02 µM
  relative viability: 0.641
Tosedostat + Olaparib; first compound 0.06325 µM
  relative viability: 0.615
Tosedostat + Olaparib; first compound 0.2 µM
  relative viability: 0.659
Tosedostat + Olaparib; first compound 0.6325 µM
  relative viability: 0.596
Tosedostat + Olaparib; first compound 2 µM
  relative viability: 0.604
[3]; first compound 0.253 µM
  relative viability: 0.697
[3]; first compound 0.8 µM
  relative viability: 0.742
[3]; first compound 2.53 µM
  relative viability: 0.795
[3]; first compound 8 µM
  relative viability: 0.614

## SK-LU-1
[1]; first compound 0.253 µM
  relative viability: 0.895
[1]; first compound 0.8 µM
  relative viability: 0.732
[1]; first compound 2.53 µM
  relative viability: 0.826
[1]; first compound 8 µM
  relative viability: 0.589
[2]; first compound 0.253 µM
  relative viability: 0.47
[2]; first compound 0.8 µM
  relative viability: 0.417
[2]; first compound 2.53 µM
  relative viability: 0.531
[2]; first compound 8 µM
  relative viability: 0.407
Tosedostat + Olaparib; first compound 0.02 µM
  relative viability: 0.467
Tosedostat + Olaparib; first compound 0.06325 µM
  relative viability: 0.45
Tosedostat + Olaparib; first compound 0.2 µM
  relative viability: 0.335
Tosedostat + Olaparib; first compound 0.6325 µM
  relative viability: 0.391
Tosedostat + Olaparib; first compound 2 µM
  relative viability: 0.367
[3]; first compound 0.253 µM
  relative viability: 0.3
[3]; first compound 2.53 µM
  relative viability: 0.247
[3]; first compound 8 µM
  relative viability: 0.199

## NCI-H2347
[1]; first compound 0.253 µM
  relative viability: 0.734
[1]; first compound 0.8 µM
  relative viability: 0.522
[1]; first compound 2.53 µM
  relative viability: 0.646
[1]; first compound 8 µM
  relative viability: 0.607
[2]; first compound 0.253 µM
  relative viability: 0.234
[2]; first compound 0.8 µM
  relative viability: 0.288
[2]; first compound 2.53 µM
  relative viability: 0.256
[2]; first compound 8 µM
  relative viability: 0.246
Tosedostat + Olaparib; first compound 0.02 µM
  relative viability: 0.694
Tosedostat + Olaparib; first compound 0.06325 µM
  relative viability: 0.618
Tosedostat + Olaparib; first compound 0.2 µM
  relative viability: 0.539
Tosedostat + Olaparib; first compound 0.6325 µM
  relative viability: 0.58
Tosedostat + Olaparib; first compound 2 µM
  relative viability: 0.484
[3]; first compound 0.8 µM
  relative viability: 0.366
[3]; first compound 2.53 µM
  relative viability: 0.463
[3]; first compound 8 µM
  relative viability: 0.354

## BEN
[1]; first compound 0.253 µM
  relative viability: 0.709
[1]; first compound 0.8 µM
  relative viability: 0.796
[1]; first compound 2.53 µM
  relative viability: 0.913
[1]; first compound 8 µM
  relative viability: 0.86
[2]; first compound 0.253 µM
  relative viability: 1.1
[2]; first compound 0.8 µM
  relative viability: 1.12
[2]; first compound 2.53 µM
  relative viability: 1.03
[2]; first compound 8 µM
  relative viability: 1.17
Tosedostat + Olaparib; first compound 0.02 µM
  relative viability: 1.11
Tosedostat + Olaparib; first compound 0.06325 µM
  relative viability: 0.952
Tosedostat + Olaparib; first compound 0.2 µM
  relative viability: 1.31
Tosedostat + Olaparib; first compound 0.6325 µM
  relative viability: 1.09
Tosedostat + Olaparib; first compound 2 µM
  relative viability: 1.02
[3]; first compound 0.253 µM
  relative viability: 0.309
[3]; first compound 0.8 µM
  relative viability: 0.28
[3]; first compound 2.53 µM
  relative viability: 0.309
[3]; first compound 8 µM
  relative viability: 0.318

## LCLC-103H
[1]; first compound 0.253 µM
  relative viability: 0.819
[1]; first compound 0.8 µM
  relative viability: 0.746
[1]; first compound 2.53 µM
  relative viability: 0.723
[1]; first compound 8 µM
  relative viability: 0.746
[2]; first compound 0.253 µM
  relative viability: 0.533
[2]; first compound 0.8 µM
  relative viability: 0.522
[2]; first compound 2.53 µM
  relative viability: 0.489
[2]; first compound 8 µM
  relative viability: 0.431
Tosedostat + Olaparib; first compound 0.02 µM
  relative viability: 0.763
Tosedostat + Olaparib; first compound 0.06325 µM
  relative viability: 0.773
Tosedostat + Olaparib; first compound 0.2 µM
  relative viability: 0.777
Tosedostat + Olaparib; first compound 0.6325 µM
  relative viability: 0.816
Tosedostat + Olaparib; first compound 2 µM
  relative viability: 0.772
[3]; first compound 0.253 µM
  relative viability: 0.372
[3]; first compound 0.8 µM
  relative viability: 0.426
[3]; first compound 2.53 µM
  relative viability: 0.426
[3]; first compound 8 µM
  relative viability: 0.385

## EKVX
[1]; first compound 0.253 µM
  relative viability: 0.369
[1]; first compound 0.8 µM
  relative viability: 0.313
[1]; first compound 2.53 µM
  relative viability: 0.311
[1]; first compound 8 µM
  relative viability: 0.393
[2]; first compound 0.253 µM
  relative viability: 0.26
[2]; first compound 0.8 µM
  relative viability: 0.254
[2]; first compound 2.53 µM
  relative viability: 0.26
[2]; first compound 8 µM
  relative viability: 0.286
Tosedostat + Olaparib; first compound 0.02 µM
  relative viability: 0.754
Tosedostat + Olaparib; first compound 0.06325 µM
  relative viability: 0.834
Tosedostat + Olaparib; first compound 0.2 µM
  relative viability: 0.818
Tosedostat + Olaparib; first compound 0.6325 µM
  relative viability: 0.576
Tosedostat + Olaparib; first compound 2 µM
  relative viability: 0.721
[3]; first compound 0.253 µM
  relative viability: 0.481
[3]; first compound 0.8 µM
  relative viability: 0.465
[3]; first compound 2.53 µM
  relative viability: 0.362
[3]; first compound 8 µM
  relative viability: 0.423

## PC-3 [JPC-3]
[1]; first compound 0.253 µM
  relative viability: 0.754
[1]; first compound 0.8 µM
  relative viability: 0.791
[1]; first compound 2.53 µM
  relative viability: 0.818
[1]; first compound 8 µM
  relative viability: 0.75
[2]; first compound 0.253 µM
  relative viability: 0.634
[2]; first compound 0.8 µM
  relative viability: 0.684
[2]; first compound 2.53 µM
  relative viability: 0.668
[2]; first compound 8 µM
  relative viability: 0.748
Tosedostat + Olaparib; first compound 0.02 µM
  relative viability: 1.11
Tosedostat + Olaparib; first compound 0.06325 µM
  relative viability: 1.11
Tosedostat + Olaparib; first compound 0.2 µM
  relative viability: 1
Tosedostat + Olaparib; first compound 0.6325 µM
  relative viability: 0.921
Tosedostat + Olaparib; first compound 2 µM
  relative viability: 0.747
[3]; first compound 0.253 µM
  relative viability: 0.691
[3]; first compound 0.8 µM
  relative viability: 0.619
[3]; first compound 2.53 µM
  relative viability: 0.655
[3]; first compound 8 µM
  relative viability: 0.681

## NCI-H23
[1]; first compound 0.253 µM
  relative viability: 0.6
[1]; first compound 2.53 µM
  relative viability: 0.454
[1]; first compound 8 µM
  relative viability: 0.441
[2]; first compound 0.253 µM
  relative viability: 0.34
[2]; first compound 0.8 µM
  relative viability: 0.37
[2]; first compound 2.53 µM
  relative viability: 0.372
[2]; first compound 8 µM
  relative viability: 0.381
Tosedostat + Olaparib; first compound 0.02 µM
  relative viability: 0.323
Tosedostat + Olaparib; first compound 0.06325 µM
  relative viability: 0.238
Tosedostat + Olaparib; first compound 0.2 µM
  relative viability: 0.294
Tosedostat + Olaparib; first compound 0.6325 µM
  relative viability: 0.252
Tosedostat + Olaparib; first compound 2 µM
  relative viability: 0.191
[3]; first compound 0.253 µM
  relative viability: 0.49
[3]; first compound 2.53 µM
  relative viability: 0.547
[3]; first compound 8 µM
  relative viability: 0.627
